Assay results from ChEMBL document CHEMBL1156829 (Proc Natl Acad Sci U S A, 2008).

What was measured:
[1] = system: Plasmodium falciparum; experiment: NOVARTIS: Inhibition of Plasmodium falciparum W2 (drug-resistant) proliferation in erythrocyte-based infection assay; assay type: functional, organism-based; settings: Plasmodium falciparum, W2; read-out: EC50
[2] = system: Plasmodium falciparum; experiment: NOVARTIS: Inhibition of Plasmodium falciparum 3D7 (drug-susceptible) proliferation in erythrocyte-based infection assay; assay type: functional, organism-based; settings: Plasmodium falciparum, 3D7
[3] = NOVARTIS: Cytotoxicity against human hepatocellular carcinoma cell line (Huh7); assay type: toxicity, cell-based, Huh-7; settings: Huh7 cells (hepatocellular carcinoma cell line)

Row | SMILES | EC50 [1] | EC50 [2] | CC50 [3]
1 | CCN1/C(=C/c2sc3ccc(I)cc3[n+]2CC)C=Cc2ccccc21 | 0.364 µM | 0.55 µM | > 10 µM
2 | CC(C)C1c2[nH]c3ccccc3c2CCN1C(=O)CCl (stereo not given) | 0.377 µM | 0.498 µM | > 10 µM
3 | O=C(C1CC1)N1CCN=C1SCc1ccc(C(F)(F)F)cc1 | > 3.7 µM | 6.08 µM | > 100 µM
4 | CCOc1ccc(CN2CCN(CC(O)COc3ccc(OCC(O)CN4CCN(Cc5ccc(OCC)cc5)CC4)cc3)CC2)cc1 (stereo not given) | 2.68 µM | 1.37 µM | 73.7 µM
5 | N=c1c2c(n(Cc3cccc(Cl)c3)c3c1CCC3)CCCC2 | 0.378 µM | 0.992 µM | > 10 µM
6 | CCCCCCCCCCCCn1ccc(=N)cc1 | 0.188 µM | 0.321 µM | 4.99 µM
7 | Cc1cccc(C2c3[nH]c4ccccc4c3CCN2C(=O)CCCN2CCCCC2=O)n1 (stereo not given) | 3.77 µM | > 12.5 µM | > 100 µM
8 | Cc1cc(-c2cnc(C)nc2C2CCN(C(=O)c3ccc4ncccc4c3)CC2)on1 | 0.42 µM | > 0.917 µM | > 11.6 µM
9 | CN(CCCNc1ccnc2cc(Cl)ccc12)S(=O)(=O)c1ccc2ccccc2c1 | 0.201 µM | 0.282 µM | > 5.54 µM
10 | CCCCCCCCCC(=O)N(C)CCCNc1ccnc2cc(Cl)ccc12 | 0.206 µM | 0.126 µM | 5.71 µM
11 | CCCCN(C)C(=O)CSc1nc(NCc2ccccc2)c2ccccc2n1 | 0.361 µM | > 1.65 µM | > 10 µM
12 | Cn1nc(C(=O)Nc2ccc(F)c(Cl)c2)c2c1-c1ccccc1S(=O)(=O)C2 | 3.61 µM | > 12.5 µM | > 100 µM
13 | CN(C)CCNc1ncc(C(=O)NCc2ccccc2)c(NCCc2ccccc2)n1 | 0.361 µM | 0.475 µM | > 10 µM
14 | O[C@@H]1[C@H]2c3cc4c(cc3CN3CCC(=C[C@@H]1O)[C@H]23)OCO4 | 0.361 µM | 0.0465 µM | > 10 µM
15 | O=C(NCC1(c2ccccc2)CCCC1)C(=O)Nc1nncs1 | > 0.36 µM | > 0.806 µM | > 10 µM
16 | O=C(CSc1nc(NCc2ccccc2)c2ccccc2n1)NCc1ccco1 | 0.378 µM | 0.254 µM | > 10 µM
17 | C=CCN1CCN(C(c2ccccc2F)c2nnnn2Cc2ccco2)CC1 (stereo not given) | 2.91 µM | > 12.5 µM | > 77 µM
18 | FC(F)(F)c1cccc(NC(=S)N2CCCC2c2ccncc2)c1 (stereo not given) | 0.37 µM | 0.327 µM | > 10 µM
19 | O=C(NCc1ccccc1)c1cnc(NCCCn2ccnc2)nc1Nc1ccccc1 | 0.369 µM | 0.611 µM | > 10 µM
20 | OC(CCNC1CCCCC1)COc1cccc2ccccc12 (stereo not given) | 0.366 µM | 0.789 µM | > 10 µM
21 | CCC(C)NC(=O)c1c[nH]c2ccc(S(=O)(=O)N(C)c3cc(C)ccc3C)cc2c1=O (stereo not given) | 2.17 µM | 5.22 µM | 59.3 µM
22 | CCOC(=O)c1cnc2ccc(OC)cc2c1NCc1cccs1 | 3.72 µM | 5.9 µM | > 100 µM
23 | c1ccc(-c2cc(N3CCOCC3)nc(-c3ccccn3)n2)nc1 | 0.372 µM | 0.907 µM | > 10 µM
24 | O=C1N(Cc2cc3ccccc3s2)CC2CN(Cc3ccccc3)CCN12 (stereo not given) | 0.372 µM | 0.436 µM | > 10 µM
25 | O=C1C(=Nc2cccc(C(F)(F)F)c2)c2ccccc2N1CN1CCc2ccccc2C1 | 3.71 µM | 8.38 µM | > 100 µM
26 | CC1=CC(=C(C#N)c2nc3ccccc3s2)C=C(C)N1c1ccc2c(c1)OCO2 | 3.71 µM | 1.04 µM | > 100 µM
27 | CCOC(=O)c1cnc2ccc3c(c(C)c(C)n3C)c2c1O | 0.37 µM | 0.37 µM | > 10 µM
28 | CCN(CC)CCCN(Cc1cc2cc(OC)c(OC)cc2[nH]c1=O)C(=S)Nc1cccc(Cl)c1 | 0.707 µM | 0.698 µM | 18.9 µM

Row | SMILES | EC50 [1] | EC50 [2] | CC50 [3]
29 | N#CC(C#N)C(C(Sc1ccc([N+](=O)[O-])cc1)=C(O)c1ccccc1)c1cccs1 (stereo not given) | 0.661 µM | 1.35 µM | 17.7 µM
30 | Cn1c(=O)n(C)c2cc(NC(=O)CCl)ccc21 | 0.444 µM | 1.47 µM | 12.2 µM
31 | CCOC(=O)c1sc2ncnc(NCc3ccc(F)cc3)c2c1C | > 3.63 µM | > 12.5 µM | > 100 µM
32 | O=C1CN(C(=O)c2cc([N+](=O)[O-])c(N3CCCCC3)c([N+](=O)[O-])c2N2CCCCC2)c2ccccc2N1 | 1.83 µM | 2.19 µM | 50.4 µM
33 | O=C(CN1CCCC1)Nc1ccc(-c2nc3cc(NC(=O)CN4CCCC4)ccc3o2)cc1 | 1.36 µM | 2.46 µM | 36.2 µM
34 | COc1cc2c(cc1OC)-c1cc3ccc4c(c3c[n+]1CC2)OCO4 | 0.233 µM | 0.103 µM | > 6.25 µM
35 | COC(=O)C1=C(C)NC(=Cc2cc(C)n(-c3cc(Cl)ccc3Cl)c2C)C1=O | 3.68 µM | 0.711 µM | > 100 µM
36 | CCN1/C(=C\C=C2/SC(=S)N(c3ccccc3)C2=O)C(C)(C)c2cc(-c3ccccc3)ccc21 | 0.318 µM | 0.129 µM | > 8.66 µM
37 | COc1ccc(NC(=O)CCCCCn2c(SCC(=O)c3ccccc3)nc3ccsc3c2=O)cc1 | 3.76 µM | 3.12 µM | > 100 µM
38 | Brc1ccc2ncnc(NCC3CCCO3)c2c1 (stereo not given) | 3.75 µM | > 12.5 µM | > 100 µM
39 | c1cncc(-c2ncc(-c3cnccn3)c(-c3cccnc3)n2)c1 | > 0.374 µM | > 1.25 µM | > 10 µM
40 | Cc1ccc(C2CC(C(F)(F)F)n3ncc(C(=O)Nc4ccc(Cl)cc4)c3N2)cc1 (stereo not given) | 3.44 µM | 2.87 µM | 95 µM
41 | Cc1cc(C)cc(NC(=O)CCCn2c3ccccc3c(=O)c3cc(C)ccc32)c1 | 3.61 µM | 4.28 µM | > 100 µM
42 | O=C(Nc1ccc(-c2nc3cc(NC(=O)C(c4ccccc4)c4ccccc4)ccc3[nH]2)cc1)C(c1ccccc1)c1ccccc1 | 3.68 µM | 4.45 µM | > 100 µM
43 | CC(C)CNC(=O)c1cc(NC(=O)c2cccs2)ccc1N1CCc2ccccc2C1 | 0.0327 µM | 0.349 µM | 0.893 µM
44 | CCCC[n+]1c(-c2ccccc2)cc(-c2ccccc2)cc1-c1ccccc1 | 0.467 µM | 0.824 µM | 12.9 µM
45 | COc1cccc(Nc2nc(NCC3CCCO3)c3ccccc3n2)c1 (stereo not given) | 0.286 µM | 0.23 µM | 7.67 µM
46 | O=C1CCC2C3C=CC(C3)C12 (stereo not given) | 0.447 µM | 1.78 µM | > 12.4 µM
47 | CCC(c1nc2ccccc2c(=O)n1-c1ccccc1OC)N(CCc1ccccc1)C(=O)Nc1ccccc1OC (stereo not given) | 0.366 µM | 1.03 µM | > 10 µM
48 | CC1(C)N=C(N)N=C(N)N1c1ccc(F)cc1 | 1.86 µM | 0.0218 µM | 51 µM
49 | CCOC(=O)c1[nH]c(CSC#N)c(C(C)=O)c1C | > 0.378 µM | > 1.25 µM | > 10 µM
50 | C=C[C@H]1CN2CC[C@H]1C[C@@H]2[C@@H](OC(=O)CC)c1ccnc2ccccc12 | 0.37 µM | 0.22 µM | > 10 µM
51 | O=C1C2C3c4ccccc4C(c4ccccc43)C2C(=O)N1CCO (stereo not given) | 3.7 µM | > 12.5 µM | > 100 µM
52 | O=c1c(NCc2ccco2)nc2cc(Cl)ccc2n1CCNc1ncc(C(F)(F)F)cc1Cl | 2.33 µM | 0.81 µM | 63.8 µM
53 | c1ccc(C[C@H]2CN(c3ccccc3)CCN2CCNCCOc2ccccc2)cc1 | 0.2 µM | 0.261 µM | > 5.32 µM
54 | Cn1cc(S(=O)(=O)c2cccc(Cl)c2)c(=O)c2cc(F)c(N3CCCCC3)cc21 | > 0.372 µM | 1.03 µM | > 10 µM
55 | CC1=C(CC(=O)c2cccs2)C(=O)c2ccccc2C1=O | 0.29 µM | 1.24 µM | 7.75 µM
